Source: patent US12005033B2, “Compositions comprising mixtures of semifluorinated alkanes” (Novaliq GmbH, priority 2012, dated 2024)

Assay: Liquid droplet spread area on a glass surface
Assay type: physicochemical
Conditions: 2 minutes after application of 50 μL of liquid to a glass surface

Row | Liquid covered surface area | SMILES
1 | 7.54 ± 0.33 cm^2 | CCCCCC(F)(F)C(F)(F)C(F)(F)C(F)(F)F [F4H5, F(CF2)4(CH2)5H]
2 | 5.20 ± 0.18 cm^2 | CCCCCCCCC [Nonane, reference compound]
3 | 1.45 ± 0.02 cm^2 | FC1(F)C(F)(F)C(F)(F)C2(F)C(F)(F)C(F)(F)C(F)(F)C(F)(F)C2(F)C1(F)F (stereo not shown) [Perfluorodecalin, reference compound]

Row | SMILES | Liquid covered surface area
4 | CCCCCCCCC(F)(F)C(F)(F)C(F)(F)C(F)(F)C(F)(F)C(F)(F)F [F6H8, F(CF2)6(CH2)8H] | 12.89 ± 0.94 cm^2
